Bridge positions count the residues as written; N and C are the ends. Square brackets hold non-standard residues; d marks the D form. Peptide text beside a SMILES is read from it.
Columns and labels:
H9N2 A/Iran/16/2000 = conditions: 48 h, 500 μM
[1] = system: H1N1 A1/Malaysia/302/1954; conditions: A1/Malaysia/302/1954, 48 h; for % inhibition H1N1: 500 μM; for % Inhibition: 1 μM
H3N8 A/Miami/2/63 = conditions: A/Miami/2/63, 48 h, 500 μM

Row | Structure (SMILES) | % inhibition H9N2 (H9N2 A/Iran/16/2000) [%] | % inhibition H1N1 [1] [%] | % inhibition H3N8 (H3N8 A/Miami/2/63) [%] | % Inhibition [1] [%]
1 | C[C@H](O)[C@H]1NC(=O)[C@H](N)CSSC[C@H](C(=O)O)NC(=O)[C@@H](CC(N)=O)NC(=O)[C@@H](CCCCN)NC(=O)[C@@H](Cc2ccccc2)NC(=O)[C@@H](CCCNC(=N)N)NC(=O)[C@@H](CO)NC(=O)[C@@H](CCCCN)NC1=O [PSP 9, H-ctksrfknc-OH] (H-[dC][dT][dK][dS][dR][dF][dK][dN][dC]-OH; disulfide 1-9) | 31.8 | 17.6 | 62.9 | 
2 | CSCC[C@H]1NC(=O)[C@@H](Cc2ccccc2)NC(=O)[C@@H](CCCNC(=N)N)NC(=O)[C@@H](CO)NC(=O)[C@@H](CCCCN)NC(=O)[C@@H]([C@H](C)O)NC(=O)[C@H](N)CSSC[C@H](C(=O)O)NC(=O)[C@@H](CC(N)=O)NC1=O [PSP 11, H-ctksrfmnc-OH] (H-[dC][dT][dK][dS][dR][dF][dM][dN][dC]-OH; disulfide 1-9) |  | 5.8 | 67 | 
3 | C[C@H](O)[C@H]1NC(=O)[C@H](N)CSSC[C@H](C(=O)O)NC(=O)[C@@H](CC(N)=O)NC(=O)[C@@H](CC(N)=O)NC(=O)[C@@H](Cc2ccccc2)NC(=O)[C@@H](CCCNC(=N)N)NC(=O)[C@@H](CO)NC(=O)[C@@H](CCCCN)NC1=O [PSP 12, H-ctksrfnnc-OH] (H-[dC][dT][dK][dS][dR][dF][dN][dN][dC]-OH; disulfide 1-9) | 27.3 | 32.7 | 70.1 | 
4 | C[C@H](O)[C@H]1NC(=O)[C@H](N)CSSC[C@H](C(=O)O)NC(=O)[C@@H](CC(N)=O)NC(=O)[C@@H](CCC(N)=O)NC(=O)[C@@H](Cc2ccccc2)NC(=O)[C@@H](CCCNC(=N)N)NC(=O)[C@@H](CO)NC(=O)[C@@H](CCCCN)NC1=O [PSP 14, H-ctksrfqnc-OH] (H-[dC][dT][dK][dS][dR][dF][dQ][dN][dC]-OH; disulfide 1-9) | 18.2 | 23.1 | 62.9 | 
5 | C[C@H](O)[C@H]1NC(=O)[C@H](N)CSSC[C@H](C(=O)O)NC(=O)[C@@H](CC(N)=O)NC(=O)[C@@H](CO)NC(=O)[C@@H](Cc2ccccc2)NC(=O)[C@@H](CCCNC(=N)N)NC(=O)[C@@H](CO)NC(=O)[C@@H](CCCCN)NC1=O [PSP 16, H-ctksrfsnc-OH] (H-[dC][dT][dK][dS][dR][dF][dS][dN][dC]-OH; disulfide 1-9) | 45.5 | 13.5 | 71.1 | 
6 | C[C@H](O)[C@H]1NC(=O)[C@H](N)CSSC[C@H](C(=O)O)NC(=O)[C@@H](CC(N)=O)NC(=O)[C@@H]([C@H](C)O)NC(=O)[C@@H](Cc2ccccc2)NC(=O)[C@@H](CCCNC(=N)N)NC(=O)[C@@H](CO)NC(=O)[C@@H](CCCCN)NC1=O [PSP 17, H-ctksrftnc-OH] (H-[dC][dT][dK][dS][dR][dF][dT][dN][dC]-OH; disulfide 1-9) | 9.1 | 30.8 | 74.2 | 
7 | CC[C@@H](C)[C@H]1NC(=O)[C@@H](Cc2ccccc2)NC(=O)[C@@H](CCCNC(=N)N)NC(=O)[C@@H](CO)NC(=O)[C@@H](C)NC(=O)[C@@H]([C@H](C)O)NC(=O)[C@H](NC(=O)[C@@H](CCCCN)NC(=O)[C@@H](CCCCN)NC(=O)[C@@H](CCCNC(=N)N)NC(=O)[C@H](N)CCCNC(=N)N)CSSC[C@H](C(=O)O)NC(=O)[C@@H](CC(N)=O)NC1=O [PSP II A1, H-rrkkctasrfinc-OH] (H-[dR][dR][dK][dK][dC][dT][dA][dS][dR][dF][dI][dN][dC]-OH; disulfide 5-13) | 40 |  | 25.9 | 
8 | CC[C@@H](C)[C@H]1NC(=O)[C@@H](Cc2ccccc2)NC(=O)[C@@H](CCCNC(=N)N)NC(=O)[C@@H](CO)NC(=O)[C@@H](CS)NC(=O)[C@@H]([C@H](C)O)NC(=O)[C@H](NC(=O)[C@@H](CCCCN)NC(=O)[C@@H](CCCCN)NC(=O)[C@@H](CCCNC(=N)N)NC(=O)[C@H](N)CCCNC(=N)N)CSSC[C@H](C(=O)O)NC(=O)[C@@H](CC(N)=O)NC1=O [PSP II A2, H-rrkkctcsrfinc-OH] (H-[dR][dR][dK][dK][dC][dT][dC][dS][dR][dF][dI][dN][dC]-OH; disulfide 5-13) |  | 1.7 | 44.4 | 
9 | CC[C@@H](C)[C@H]1NC(=O)[C@@H](Cc2ccccc2)NC(=O)[C@@H](CCCNC(=N)N)NC(=O)[C@@H](CO)NC(=O)[C@@H](CC(=O)O)NC(=O)[C@@H]([C@H](C)O)NC(=O)[C@H](NC(=O)[C@@H](CCCCN)NC(=O)[C@@H](CCCCN)NC(=O)[C@@H](CCCNC(=N)N)NC(=O)[C@H](N)CCCNC(=N)N)CSSC[C@H](C(=O)O)NC(=O)[C@@H](CC(N)=O)NC1=O [PSP II A3, H-rrkkctdsrfinc-OH] (H-[dR][dR][dK][dK][dC][dT][dD][dS][dR][dF][dI][dN][dC]-OH; disulfide 5-13) | 40 | 44.8 | 85.2 | 
10 | CC[C@@H](C)[C@H]1NC(=O)[C@@H](Cc2ccccc2)NC(=O)[C@@H](CCCNC(=N)N)NC(=O)[C@@H](CO)NC(=O)[C@@H](CCC(=O)O)NC(=O)[C@@H]([C@H](C)O)NC(=O)[C@H](NC(=O)[C@@H](CCCCN)NC(=O)[C@@H](CCCCN)NC(=O)[C@@H](CCCNC(=N)N)NC(=O)[C@H](N)CCCNC(=N)N)CSSC[C@H](C(=O)O)NC(=O)[C@@H](CC(N)=O)NC1=O [PSP II A4, H-rrkkctesrfinc-OH] (H-[dR][dR][dK][dK][dC][dT][dE][dS][dR][dF][dI][dN][dC]-OH; disulfide 5-13) | 60 | 36.2 | 74.1 | 
11 | CC[C@@H](C)[C@H]1NC(=O)[C@@H](Cc2ccccc2)NC(=O)[C@@H](CCCNC(=N)N)NC(=O)[C@@H](CO)NC(=O)[C@@H](Cc2ccccc2)NC(=O)[C@@H]([C@H](C)O)NC(=O)[C@H](NC(=O)[C@@H](CCCCN)NC(=O)[C@@H](CCCCN)NC(=O)[C@@H](CCCNC(=N)N)NC(=O)[C@H](N)CCCNC(=N)N)CSSC[C@H](C(=O)O)NC(=O)[C@@H](CC(N)=O)NC1=O [PSP II A5, H-rrkkctfsrfinc-OH] (H-[dR][dR][dK][dK][dC][dT][dF][dS][dR][dF][dI][dN][dC]-OH; disulfide 5-13) | 50 | 82.8 | 100 | 
12 | CC[C@@H](C)[C@H]1NC(=O)[C@@H](Cc2ccccc2)NC(=O)[C@@H](CCCNC(=N)N)NC(=O)[C@@H](CO)NC(=O)CNC(=O)[C@@H]([C@H](C)O)NC(=O)[C@H](NC(=O)[C@@H](CCCCN)NC(=O)[C@@H](CCCCN)NC(=O)[C@@H](CCCNC(=N)N)NC(=O)[C@H](N)CCCNC(=N)N)CSSC[C@H](C(=O)O)NC(=O)[C@@H](CC(N)=O)NC1=O [PSP II A6, H-rrkkctGsrfinc-OH] (H-[dR][dR][dK][dK][dC][dT]G[dS][dR][dF][dI][dN][dC]-OH; disulfide 5-13) | 20 | 1.7 | 44.4 | 
13 | CC[C@@H](C)[C@H]1NC(=O)[C@@H](Cc2ccccc2)NC(=O)[C@@H](CCCNC(=N)N)NC(=O)[C@@H](CO)NC(=O)[C@@H](Cc2c[nH]cn2)NC(=O)[C@@H]([C@H](C)O)NC(=O)[C@H](NC(=O)[C@@H](CCCCN)NC(=O)[C@@H](CCCCN)NC(=O)[C@@H](CCCNC(=N)N)NC(=O)[C@H](N)CCCNC(=N)N)CSSC[C@H](C(=O)O)NC(=O)[C@@H](CC(N)=O)NC1=O [PSP II A7, H-rrkkcthsrfinc-OH] (H-[dR][dR][dK][dK][dC][dT][dH][dS][dR][dF][dI][dN][dC]-OH; disulfide 5-13) | 50 | 71 | 81.5 | 
14 | CC[C@@H](C)[C@H]1NC(=O)[C@@H](Cc2ccccc2)NC(=O)[C@@H](CCCNC(=N)N)NC(=O)[C@@H](CO)NC(=O)[C@@H]([C@H](C)CC)NC(=O)[C@@H]([C@H](C)O)NC(=O)[C@H](NC(=O)[C@@H](CCCCN)NC(=O)[C@@H](CCCCN)NC(=O)[C@@H](CCCNC(=N)N)NC(=O)[C@H](N)CCCNC(=N)N)CSSC[C@H](C(=O)O)NC(=O)[C@@H](CC(N)=O)NC1=O [PSP II A8, H-rrkkctisrfinc-OH] (H-[dR][dR][dK][dK][dC][dT][dI][dS][dR][dF][dI][dN][dC]-OH; disulfide 5-13) | 20 | 75 | 77.8 | 
15 | CC[C@@H](C)[C@H]1NC(=O)[C@@H](Cc2ccccc2)NC(=O)[C@@H](CCCNC(=N)N)NC(=O)[C@@H](CO)NC(=O)[C@@H](CC(N)=O)NC(=O)[C@@H]([C@H](C)O)NC(=O)[C@H](NC(=O)[C@@H](CCCCN)NC(=O)[C@@H](CCCCN)NC(=O)[C@@H](CCCNC(=N)N)NC(=O)[C@H](N)CCCNC(=N)N)CSSC[C@H](C(=O)O)NC(=O)[C@@H](CC(N)=O)NC1=O [PSP II A12, H-rrkkctnsrfinc-OH] (H-[dR][dR][dK][dK][dC][dT][dN][dS][dR][dF][dI][dN][dC]-OH; disulfide 5-13) |  | 53.8 | 70.6 | 
16 | CC[C@@H](C)[C@H]1NC(=O)[C@@H](CCC(N)=O)NC(=O)[C@@H]([C@H](C)O)NC(=O)[C@@H](Cc2ccccc2)NC(=O)[C@@H](Cc2c[nH]c3ccccc23)NC(=O)[C@@H](Cc2c[nH]c3ccccc23)NC(=O)[C@H](NC(=O)[C@H](CCCCN)NC(=O)[C@H](CCCCN)NC(=O)[C@H](CCCNC(=N)N)NC(=O)[C@@H](N)CCCNC(=N)N)CSSC[C@H](C(=O)O)NC(=O)[C@@H](C)NC1=O [PSP VII A14, H-RRKKcwwftqiac-OH] (H-RRKK[dC][dW][dW][dF][dT][dQ][dI][dA][dC]-OH; disulfide 5-13) |  |  |  | 21.9
17 | CC[C@@H](C)[C@H]1NC(=O)[C@@H](CCCNC(=N)N)NC(=O)[C@@H]([C@H](C)O)NC(=O)[C@@H](Cc2ccccc2)NC(=O)[C@@H](Cc2c[nH]c3ccccc23)NC(=O)[C@@H](Cc2c[nH]c3ccccc23)NC(=O)[C@H](NC(=O)[C@H](CCCCN)NC(=O)[C@H](CCCCN)NC(=O)[C@H](CCCNC(=N)N)NC(=O)[C@@H](N)CCCNC(=N)N)CSSC[C@H](C(=O)O)NC(=O)[C@@H](C)NC1=O [PSP VII A15, H-RRKKcwwftriac-OH] (H-RRKK[dC][dW][dW][dF][dT][dR][dI][dA][dC]-OH; disulfide 5-13) |  |  |  | 39.1

Source: patent US10538554B2, “Peptides and uses therefor as antiviral agents” (priority 2015, dated 2020)
